How the values were obtained:
Type in all cases: cell-based
[1] = molecular target: T1, F876L mutant Androgen Receptor (AR-F876L) (Homo sapiens (Human), UniProt P10275, F877L); experiment: LNCaP-AR-F876L ANT reporter assay (antagonist mode); conditions: for IC50 / LNCaP-AR-F876L ANT pIC50: antagonist mode, pIC50 = −Log10(IC50 in Molar); for IC50: read-out: LNCaP-AR-F876L ANT pIC50 (converted); for Emax: maximum % inhibition of R1881 control response over the tested concentration range, read-out: LNCaP-AR-F876L ANT MAX % Inh
[2] = molecular target: T2, wild-type Androgen Receptor (AR-wt) (Homo sapiens (Human), UniProt P10275); experiment: LNCaP-AR-wt ANT reporter assay (antagonist mode); conditions: for IC50 / LNCaP-AR-wt ANT pIC50: antagonist mode, pIC50 = −Log10(IC50 in Molar); for IC50: read-out: LNCaP-AR-wt ANT pIC50 (converted); for Emax: maximum % inhibition of R1881 control response over the tested concentration range, read-out: LNCaP-AR-wt ANT MAX % Inh
[3] = molecular target: T2, wild-type Androgen Receptor (AR-wt); experiment: LNCaP-AR-wt AG reporter assay (agonist mode); conditions: for EC50 / LNCaP-AR-wt AG pEC50: agonist mode, pEC50 = −Log10(EC50 in Molar); for EC50: read-out: LNCaP-AR-wt AG pEC50 (converted); for Emax: maximum % stimulation (agonist response) over the tested concentration range, read-out: LNCaP-AR-wt AG MAX % Stim
[4] = molecular target: T1, F876L mutant Androgen Receptor (AR-F876L); experiment: LNCaP-AR-F876L AG reporter assay (agonist mode); conditions: for EC50 / LNCaP-AR-F876L AG pEC50: agonist mode, pEC50 = −Log10(EC50 in Molar); for EC50: read-out: LNCaP-AR-F876L AG pEC50 (converted); for Emax: maximum % stimulation (agonist response) over the tested concentration range, read-out: LNCaP-AR-F876L AG MAX % Stim

T1 sequence (P10275 whole entry F877L): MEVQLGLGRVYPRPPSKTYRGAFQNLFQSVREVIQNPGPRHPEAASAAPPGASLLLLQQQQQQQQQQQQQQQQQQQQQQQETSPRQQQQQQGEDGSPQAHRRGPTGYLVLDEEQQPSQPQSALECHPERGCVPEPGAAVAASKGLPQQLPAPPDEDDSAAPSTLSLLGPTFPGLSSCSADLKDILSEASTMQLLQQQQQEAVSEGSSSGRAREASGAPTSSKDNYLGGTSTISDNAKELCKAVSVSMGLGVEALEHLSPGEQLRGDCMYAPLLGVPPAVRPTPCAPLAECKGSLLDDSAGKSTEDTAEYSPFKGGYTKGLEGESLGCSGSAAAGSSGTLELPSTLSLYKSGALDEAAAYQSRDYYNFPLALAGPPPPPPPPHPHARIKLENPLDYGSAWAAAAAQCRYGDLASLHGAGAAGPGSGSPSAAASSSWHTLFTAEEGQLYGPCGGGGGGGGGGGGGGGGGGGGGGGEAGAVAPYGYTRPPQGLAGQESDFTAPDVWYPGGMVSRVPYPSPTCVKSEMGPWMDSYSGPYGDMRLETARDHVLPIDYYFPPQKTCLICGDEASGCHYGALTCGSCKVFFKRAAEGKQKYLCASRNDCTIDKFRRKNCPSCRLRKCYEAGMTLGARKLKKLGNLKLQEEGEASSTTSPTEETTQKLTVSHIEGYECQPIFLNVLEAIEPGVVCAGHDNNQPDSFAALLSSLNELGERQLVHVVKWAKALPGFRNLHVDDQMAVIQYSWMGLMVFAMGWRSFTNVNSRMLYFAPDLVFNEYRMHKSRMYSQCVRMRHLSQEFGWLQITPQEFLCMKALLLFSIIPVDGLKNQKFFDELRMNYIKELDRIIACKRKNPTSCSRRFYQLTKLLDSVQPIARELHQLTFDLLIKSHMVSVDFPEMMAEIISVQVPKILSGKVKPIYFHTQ
T2 sequence (P10275 whole entry): as the sequence (P10275 whole entry F877L) above, with L877F counted along it

Row | Structure (SMILES) | IC50 [1] [nM] | Emax [1] [%] | IC50 [2] [nM] | Emax [2] [%] | EC50 [3] [nM] | Emax [3] [%] | EC50 [4] [nM] | Emax [4] [%] | LNCaP-AR-F876L ANT pIC50 [1] | LNCaP-AR-wt ANT pIC50 [2] | LNCaP-AR-wt AG pEC50 [3] | LNCaP-AR-F876L AG pEC50 [4]
1 | N#Cc1ncc(N2C(=O)C3(CCC3)N(c3ccc(O)nc3)C2=S)cc1Cl [Cpd 45, 3-chloro-5-[8-(6-hydroxy-3-pyridyl)-5-oxo-7-thioxo-6,8-diazaspiro[3.4]octan-6-yl]pyridine-2-carbonitrile] | 1260 | 99.2 | 3020 | 92.9 | > 15100 | -0.3 | > 15100 | 0 |  |  |  | 
2 | CC(C)(C)OC(=O)N1CCC(CNC(=O)c2ccc(N3C(=S)N(c4cnc(C#N)c(C(F)(F)F)c4)C(=O)C34CCC4)cc2)CC1 [Cpd 46, tert-butyl 4-[[[4-[6-[6-cyano-5-(trifluoromethyl)-3-pyridyl]-5-oxo-7-thioxo-6,8-diazaspiro[3.4]octan-8-yl]benzoyl]amino]methyl]piperidine-1-carboxylate] | 110 | 97.6 | 219 | 101 | > 15100 | 1.1 | > 15100 | 0.3 |  |  |  | 
3 | CC(C)(C)OC(=O)N1CCN(Cc2ccc(N3C(=S)N(c4cnc(C#N)c(C(F)(F)F)c4)C(=O)C34CCC4)cc2)CC1 [Cpd 47, tert-butyl 4-[[4-[6-[6-cyano-5-(trifluoromethyl)-3-pyridyl]-5-oxo-7-thioxo-6,8-diazaspiro[3.4]octan-8-yl]phenyl]methyl]piperazine-1-carboxylate] | 145 | 100 | 316 | 100 | > 15100 | 0.7 | > 15100 | 0.5 |  |  |  | 
4 | N#CCN1CCC(Oc2ccc(N3C(=S)N(c4cnc(C#N)c(Cl)c4)C(=O)C34CCC4)cc2)CC1 [Cpd 51, 3-chloro-5-[8-[4-[[1-(cyanomethyl)-4-piperidyl]oxy]phenyl]-5-oxo-7-thioxo-6,8-diazaspiro[3.4]octan-6-yl]pyridine-2-carbonitrile] | 24.5 | 101 | 53.7 | 98 | > 15100 | 2.3 | > 15100 | 1.7 |  |  |  | 
5 | CC(C)(C)OC(=O)N1CC(F)(F)CC1COc1ccc(N2C(=S)N(c3cnc(C#N)c(C(F)(F)F)c3)C(=O)C23CCC3)cc1 (centres unmarked) [Cpd 56, tert-butyl 2-[[4-[6-[6-cyano-5-(trifluoromethyl)-3-pyridyl]-5-oxo-7-thioxo-6,8-diazaspiro[3.4]octan-8-yl]phenoxy]methyl]-4,4-difluoro-pyrrolidine-1-carboxylate] | 676 | 85.2 | 631 | 84.5 | > 15100 | 0.4 | > 15100 | 0.1 |  |  |  | 
6 | COC(=O)C1CCC(N2C(=S)N(c3cnc(C#N)c(C(F)(F)F)c3)C(=O)C23CCC3)CC1 (centres unmarked) [Cpd 57, Methyl 4-[6-[6-cyano-5-(trifluoromethyl)-3-pyridyl]-5-oxo-7-thioxo-6,8-diazaspiro[3.4]octan-8-yl]cyclohexanecarboxylate] | 200 | 99.1 | 490 | 100 | > 15100 | 0.3 | > 15100 | 0.3 |  |  |  | 
7 | CC(C)(C)OC(=O)N1C2CCC1C(F)C(Oc1ccc(N3C(=S)N(c4cnc(C#N)c(C(F)(F)F)c4)C(=O)C34CCC4)cc1)C2 (centres unmarked) [Cpd 85, tert-butyl 3-[4-[6-[6-cyano-5-(trifluoromethyl)-3-pyridyl]-5-oxo-7-thioxo-6,8-diazaspiro[3.4]octan-8-yl]phenoxy]-4-fluoro-8-azabicyclo[3.2.1]octane-8-carboxylate] |  | 85.8 |  | 88.3 |  | -0.1 |  | 0.6 | 6.37 | 6.46 | <4.82 | <4.82
8 | C=CCN1CCC(Oc2ccc(N3C(=S)N(c4cnc(C#N)c(Cl)c4)C(=O)C34CCC4)cn2)CC1 [Cpd 89, 5-[8-[6-[(1-allyl-4-piperidyl)oxy]-3-pyridyl]-5-oxo-7-thioxo-6,8-diazaspiro[3.4]octan-6-yl]-3-chloro-pyridine-2-carbonitrile] | 55 | 98.4 | 67.6 | 101 | > 15100 | 0.2 | > 15100 | 3.3 |  |  |  | 
9 | C=CCN1CCC(Oc2ccc(N3C(=S)N(c4cnc(C#N)c(C)c4)C(=O)C34CCC4)cn2)CC1 [Cpd 99, 5-[8-[6-[(1-allyl-4-piperidyl)oxy]-3-pyridyl]-5-oxo-7-thioxo-6,8-diazaspiro[3.4]octan-6-yl]-3-methyl-pyridine-2-carbonitrile] | 72.4 | 99.7 | 174 | 101 | > 15100 | 0.5 | > 15100 | 0.2 |  |  |  | 
10 | CC(C)(C)OC(=O)NC1C(C)(C)C(Oc2ccc(N3C(=S)N(c4cnc(C#N)c(C(F)(F)F)c4)C(=O)C34CCC4)cc2)C1(C)C (centres unmarked) [Cpd 110, tert-butyl N-[3-[4-[6-[6-cyano-5-(trifluoromethyl)-3-pyridyl]-5-oxo-7-thioxo-6,8-diazaspiro[3.4]octan-8-yl]phenoxy]-2,2,4,4-tetramethyl-cyclobutyl]carbamate] | 91.2 | 100 | 132 | 101 | > 15100 | 0.3 | > 15100 | 0.2 |  |  |  | 
11 | CC(C)(C)OC(=O)N1C2CCC1CC(c1ccc(N3C(=S)N(c4cnc(C#N)c(C(F)(F)F)c4)C(=O)C34CCC4)cc1)C2 (centres unmarked) [Cpd 113, tert-butyl 3-[4-[6-[6-cyano-5-(trifluoromethyl)-3-pyridyl]-5-oxo-7-thioxo-6,8-diazaspiro[3.4]octan-8-yl]phenyl]-8-azabicyclo[3.2.1]octane-8-carboxylate] |  | 83.6 |  | 89 |  | 0.3 |  | 1.8 | 6.26 | 6.35 | <4.82 | <4.82
12 | CN1C2CCC1CC(c1ccc(N3C(=S)N(c4cnc(C#N)c(C(F)(F)F)c4)C(=O)C34CCC4)cc1)C2 (centres unmarked) [Cpd 114, 5-(5-(4-(8-methyl-8-azabicyclo[3.2.1]octan-3-yl)phenyl)-8-oxo-6-thioxo-5,7-diazaspiro[3.4]octan-7-yl)-3-(trifluoromethyl)picolinonitrile] | 1020 | 101 | 2690 | 102 | > 15100 | -0.1 | > 15100 | 0.3 |  |  |  | 
13 | N#Cc1ncc(N2C(=O)C3(CCC3)N(c3ccc(C4=CC5CCC(C4)N5)cc3)C2=S)cc1C(F)(F)F (centres unmarked) [Cpd 116, 5-[8-[4-(8-azabicyclo[3.2.1]oct-3-en-3-yl)phenyl]-5-oxo-7-thioxo-6,8-diazaspiro[3.4]octan-6-yl]-3-(trifluoromethyl)pyridine-2-carbonitrile] |  | 102 |  | 102 |  | 0.5 |  | 0.8 | 6.01 | 5.96 | <4.82 | <4.82
14 | C#CCN1CC(Oc2ccc(N3C(=S)N(c4cnc(C#N)c(C(F)(F)F)c4)C(=O)C34CCC4)cc2)C1 [Cpd 117, 5-(8-oxo-5-(4-((1-(prop-2-yn-1-yl)azetidin-3-yl)oxy)phenyl)-6-thioxo-5,7-diazaspiro[3.4]octan-7-yl)-3-(trifluoromethyl)picolinonitrile] | 112 | 99.4 | 97.7 | 102 | > 15100 | 0 | > 15100 | 0.9 |  |  |  | 
15 | CC(C)(C)OC(=O)N1CCc2cc(N3C(=S)N(c4cnc(C#N)c(C(F)(F)F)c4)C(=O)C34CCC4)ccc2C1 [Cpd 118, tert-butyl 6-[6-[6-cyano-5-(trifluoromethyl)-3-pyridyl]-5-oxo-7-thioxo-6,8-diazaspiro[3.4]octan-8-yl]-3,4-dihydro-1H-isoquinoline-2-carboxylate] | 676 | 93.7 | 490 | 101 | > 15100 | 0.1 | > 15100 | 0.8 |  |  |  | 
16 | CC(=O)N1CCc2cc(N3C(=S)N(c4cnc(C#N)c(C(F)(F)F)c4)C(=O)C34CCC4)ccc2C1 [Cpd 120, 5-(5-(2-acetyl-1,2,3,4-tetrahydroisoquinolin-6-yl)-8-oxo-6-thioxo-5,7-diazaspiro[3.4]octan-7-yl)-3-(trifluoromethyl)picolinonitrile] | 339 | 101 | 200 | 100 | > 15100 | 0.2 | > 15100 | 1.1 |  |  |  | 
